From publication PMC5218480 (PLoS ONE, 2017)

Test system: MV-4-11 cells
Assay: Gene expression microarray analysis (Affymetrix PrimeView) and GSEA
Assay type: cell-based, human
Parameters: RFU PODN (11730768_x_at) / Fold change /veh PODN (11730768_x_at) / RFU LINC00158 (11744669_a_at) / Fold change /veh LINC00158 (11744669_a_at) / RFU DUSP10 (11751237_a_at) / Fold change /veh DUSP10 (11751237_a_at) / RFU ID3 (11757404_x_at) / Fold change /veh ID3 (11757404_x_at) / RFU PLEKHG5 (11737974_s_at) / Fold change /veh PLEKHG5 (11737974_s_at) / RFU LRRC4B (11730491_at) / Fold change /veh LRRC4B (11730491_at) / RFU GIMAP4 (11747438_a_at) / Fold change /veh GIMAP4 (11747438_a_at) / RFU KRT8 (11758183_x_at) / Fold change /veh KRT8 (11758183_x_at) / RFU CNN1 (11734310_a_at) / Fold change /veh CNN1 (11734310_a_at) / RFU VPS37D (11726825_at) / Fold change /veh VPS37D (11726825_at) / RFU C10orf10 (11716522_x_at) / Fold change /veh C10orf10 (11716522_x_at) / RFU KIR2DL2 /// KIR2DL4 /// KIR2DL5A /// KIR2DL5B /// KIR2DS1 /// KIR2DS2 /// KIR2DS3 /// KIR2DS4 /// KIR3DL3 /// KIR3DL3 /// KIR3DS1 (11738374_at) / Fold change /veh KIR2DL2 /// KIR2DL4 /// KIR2DL5A /// KIR2DL5B /// KIR2DS1 /// KIR2DS2 /// KIR2DS3 /// KIR2DS4 /// KIR3DL3 /// KIR3DL3 /// KIR3DS1 (11738374_at) / RFU C1QL1 (11718748_at) / Fold change /veh C1QL1 (11718748_at) / RFU TMPRSS4 (11747572_a_at) / Fold change /veh TMPRSS4 (11747572_a_at) / RFU HAMP (11756126_x_at) / Fold change /veh HAMP (11756126_x_at) / RFU RNFT2 (11725882_a_at) / Fold change /veh RNFT2 (11725882_a_at) / RFU NR4A2 (11747474_a_at) / Fold change /veh NR4A2 (11747474_a_at) / RFU ABCC12 (11746883_a_at) / Fold change /veh ABCC12 (11746883_a_at) / RFU TMEM136 (11760407_x_at) / Fold change /veh TMEM136 (11760407_x_at) / RFU CLDN22 /// WWC2 (11732394_at) / Fold change /veh CLDN22 /// WWC2 (11732394_at) / RFU HLA-DPB1 (11760878_x_at) / Fold change /veh HLA-DPB1 (11760878_x_at) / RFU SPINT1 (11716480_a_at) / Fold change /veh SPINT1 (11716480_a_at) / RFU GAP43 (11754022_s_at) / Fold change /veh GAP43 (11754022_s_at) / RFU A4GNT (11735810_at) / Fold change /veh A4GNT (11735810_at) / RFU PRB3 (11715151_x_at) / Fold change /veh PRB3 (11715151_x_at) / RFU TUBB4B (11761932_at) / Fold change /veh TUBB4B (11761932_at) / RFU CAPN14 (11732068_a_at) / Fold change /veh CAPN14 (11732068_a_at) / RFU TMCC2 (11721928_a_at) / Fold change /veh TMCC2 (11721928_a_at) / RFU IRGQ (11745062_a_at) / Fold change /veh IRGQ (11745062_a_at) / RFU FAM174B (11720279_a_at) / Fold change /veh FAM174B (11720279_a_at) / RFU TMPRSS4 (11748680_a_at) / Fold change /veh TMPRSS4 (11748680_a_at) / RFU FAM212B (11763350_a_at) / Fold change /veh FAM212B (11763350_a_at) / RFU PLEKHG5 (11743358_a_at) / Fold change /veh PLEKHG5 (11743358_a_at) / RFU ZSCAN30 (11745921_a_at) / Fold change /veh ZSCAN30 (11745921_a_at) / RFU CMKLR1 (11741424_a_at) / Fold change /veh CMKLR1 (11741424_a_at) / RFU LOC101060620 /// MAPK8IP1 (11723275_at) / Fold change /veh LOC101060620 /// MAPK8IP1 (11723275_at) / RFU SPTSSB (11747773_x_at) / Fold change /veh SPTSSB (11747773_x_at) / RFU PRSS12 (11739890_at) / Fold change /veh PRSS12 (11739890_at) / RFU BIN1 (11741810_x_at) / Fold change /veh BIN1 (11741810_x_at) / RFU WNT11 (11732464_a_at) / Fold change /veh WNT11 (11732464_a_at) / RFU C10orf10 (11716521_a_at) / Fold change /veh C10orf10 (11716521_a_at) / RFU C5orf56 (11738089_at) / Fold change /veh C5orf56 (11738089_at) / RFU CYB561 (11721691_x_at) / Fold change /veh CYB561 (11721691_x_at) / RFU ANKRD19P (11752326_a_at) / Fold change /veh ANKRD19P (11752326_a_at) / RFU OR2T12 /// OR2T33 /// OR2T8 (11738714_s_at) / Fold change /veh OR2T12 /// OR2T33 /// OR2T8 (11738714_s_at) / RFU VCAN (11748164_a_at) / Fold change /veh VCAN (11748164_a_at) / RFU JSRP1 (11732532_at) / Fold change /veh JSRP1 (11732532_at) / RFU KRTAP10-11 (11738290_x_at) / Fold change /veh KRTAP10-11 (11738290_x_at) / RFU MYO3A (11730013_a_at) / Fold change /veh MYO3A (11730013_a_at) / RFU EBF3 (11725865_a_at) / Fold change /veh EBF3 (11725865_a_at) / RFU CAMK2N1 (11719241_x_at) / Fold change /veh CAMK2N1 (11719241_x_at) / RFU C5orf56 (11738088_a_at) / Fold change /veh C5orf56 (11738088_a_at) / RFU OLFML3 (11715873_a_at) / Fold change /veh OLFML3 (11715873_a_at) / RFU LOC100653217 /// NTM (11731650_a_at) / Fold change /veh LOC100653217 /// NTM (11731650_a_at) / RFU MAPK11 (11762145_a_at) / Fold change /veh MAPK11 (11762145_a_at) / RFU FIZ1 (11724087_x_at) / Fold change /veh FIZ1 (11724087_x_at) / RFU OASL (11726364_x_at) / Fold change /veh OASL (11726364_x_at) / RFU SOX15 (11748057_x_at) / Fold change /veh SOX15 (11748057_x_at) / RFU CD79A (11719716_a_at) / Fold change /veh CD79A (11719716_a_at) / RFU HIST1H1D (11736915_at) / Fold change /veh HIST1H1D (11736915_at) / RFU CASKIN2 (11723855_a_at) / Fold change /veh CASKIN2 (11723855_a_at) / RFU LOC730098 (11760151_x_at) / Fold change /veh LOC730098 (11760151_x_at) / RFU OR4N2 (11742367_at) / Fold change /veh OR4N2 (11742367_at) / RFU PRRT2 (11749266_a_at) / Fold change /veh PRRT2 (11749266_a_at) / RFU SNX32 (11753110_a_at) / Fold change /veh SNX32 (11753110_a_at) / RFU CDHR5 (11726645_a_at) / Fold change /veh CDHR5 (11726645_a_at) / RFU RCAN1 (11760418_a_at) / Fold change /veh RCAN1 (11760418_a_at) / RFU FAM167A (11723789_a_at) / Fold change /veh FAM167A (11723789_a_at) / RFU FAM26E (11764081_at) / Fold change /veh FAM26E (11764081_at) / RFU ISYNA1 (11749810_s_at) / Fold change /veh ISYNA1 (11749810_s_at) / RFU ACY1 (11761880_at) / Fold change /veh ACY1 (11761880_at) / RFU 11764098_at / Fold change /veh 11764098_at / RFU SAMD14 (11745864_x_at) / Fold change /veh SAMD14 (11745864_x_at) / RFU NPB (11741838_a_at) / Fold change /veh NPB (11741838_a_at) / RFU TMPRSS6 (11731388_a_at) / Fold change /veh TMPRSS6 (11731388_a_at) / RFU KRTAP10-2 (11738614_at) / Fold change /veh KRTAP10-2 (11738614_at) / RFU ARHGAP8 /// PRR5-ARHGAP8 (11727945_x_at) / Fold change /veh ARHGAP8 /// PRR5-ARHGAP8 (11727945_x_at) / RFU KRTAP5-7 /// NADSYN1 (11734609_at) / Fold change /veh KRTAP5-7 /// NADSYN1 (11734609_at) / RFU RASL12 (11751679_a_at) / Fold change /veh RASL12 (11751679_a_at) / RFU CDKN2B (11736163_a_at) / Fold change /veh CDKN2B (11736163_a_at) / RFU PRF1 (11729649_at) / Fold change /veh PRF1 (11729649_at) / RFU, ZNF638 /// ZNF638-IT1 / Fold change vs veh, ZNF638 /// ZNF638-IT1 / RFU, PANK3 / Fold change vs veh, PANK3 / RFU, SH3YL1 / Fold change vs veh, SH3YL1 / RFU, ZEB2 / Fold change vs veh, ZEB2 / RFU, NRIP1 / Fold change vs veh, NRIP1 / RFU, PTTG1IP / Fold change vs veh, PTTG1IP / RFU, CAPN2 / Fold change vs veh, CAPN2 / RFU, MED14 / Fold change vs veh, MED14 / RFU, SNORA58 / Fold change vs veh, SNORA58 / RFU, C1orf63 / Fold change vs veh, C1orf63 / RFU, LRRFIP1 / Fold change vs veh, LRRFIP1 / RFU, NDUFAF7 / Fold change vs veh, NDUFAF7 / RFU, SLC12A2 / Fold change vs veh, SLC12A2 / RFU, IBTK / Fold change vs veh, IBTK / RFU, ESF1 / Fold change vs veh, ESF1 / Fold change vs veh, TMEM50B / RFU, TAOK1 / Fold change vs veh, TAOK1 / RFU, ACBD3 / Fold change vs veh, ACBD3 / RFU, TMA16 / Fold change vs veh, TMA16 / RFU, RWDD3 / Fold change vs veh, RWDD3 / RFU, BCAT1 / Fold change vs veh, BCAT1 / RFU, EDEM3 / Fold change vs veh, EDEM3 / RFU, TMEM33 / Fold change vs veh, TMEM33 / RFU, WDR75 / Fold change vs veh, WDR75 / RFU, AHCTF1 / Fold change vs veh, AHCTF1 / RFU, TFRC / Fold change vs veh, TFRC / RFU, ZDHHC17 / Fold change vs veh, ZDHHC17 / RFU, NOM1 / Fold change vs veh, NOM1 / RFU, ARL8B / Fold change vs veh, ARL8B / RFU, ZBTB11 / Fold change vs veh, ZBTB11 / RFU, TAMM41 / Fold change vs veh, TAMM41 / RFU, KIAA1704 /// LOC100996395 / Fold change vs veh, KIAA1704 /// LOC100996395 / RFU, ING1 / Fold change vs veh, ING1 / RFU, TRMT61B / Fold change vs veh, TRMT61B / RFU, FUBP3 / Fold change vs veh, FUBP3 / RFU, TP53 / Fold change vs veh, TP53 / RFU, TNKS2 / Fold change vs veh, TNKS2 / RFU, ZFP14 / Fold change vs veh, ZFP14 / RFU, ACTR2 / Fold change vs veh, ACTR2 / RFU, PPP3R1 / Fold change vs veh, PPP3R1 / RFU, PIK3R1 / Fold change vs veh, PIK3R1 / RFU, HNRNPA1 / Fold change vs veh, HNRNPA1 / RFU, RNF170 / Fold change vs veh, RNF170 / RFU, ZNF28 / Fold change vs veh, ZNF28 / RFU, RNGTT / Fold change vs veh, RNGTT / RFU, OGT / Fold change vs veh, OGT / RFU, BRD1 / Fold change vs veh, BRD1 / RFU, MARS / Fold change vs veh, MARS / RFU, ZNF655 / Fold change vs veh, ZNF655 / RFU, FAHD1 / Fold change vs veh, FAHD1 / RFU, BDP1 / Fold change vs veh, BDP1 / RFU, LRRCC1 / Fold change vs veh, LRRCC1 / RFU, ARID1A / Fold change vs veh, ARID1A / RFU, ZNF146 / Fold change vs veh, ZNF146 / RFU, ZNF330 / Fold change vs veh, ZNF330 / RFU, GPN3 / Fold change vs veh, GPN3 / RFU, C9orf123 / Fold change vs veh, C9orf123 / RFU, N4BP2L2 / Fold change vs veh, N4BP2L2 / RFU, ARFIP1 / Fold change vs veh, ARFIP1 / RFU, FAM179B / Fold change vs veh, FAM179B / RFU, BCL10 / Fold change vs veh, BCL10 / RFU, UHRF1BP1L / Fold change vs veh, UHRF1BP1L / RFU, BET1 / Fold change vs veh, BET1 / RFU, CNOT2 / Fold change vs veh, CNOT2 / RFU, ZNF268 / Fold change vs veh, ZNF268 / Fold change vs veh, ZNF507 / RFU, DGCR2 / Fold change vs veh, DGCR2 / RFU, WDSUB1 / Fold change vs veh, WDSUB1 / Fold change vs veh, HSP90B1 /// MIR3652 / RFU, ADSS / Fold change vs veh, ADSS / RFU, GK / Fold change vs veh, GK / RFU, ZNF148 / Fold change vs veh, ZNF148 / RFU, TAF9 / Fold change vs veh, TAF9 / RFU, SLC1A5 / Fold change vs veh, SLC1A5 / RFU, SLMO2 / Fold change vs veh, SLMO2 / RFU, ABCC4 / Fold change vs veh, ABCC4 / RFU, LOC101060439 /// RAP1B / Fold change vs veh, LOC101060439 /// RAP1B / RFU, RFX7 / Fold change vs veh, RFX7 / RFU, GTPBP10 / Fold change vs veh, GTPBP10 / RFU, CNEP1R1 / Fold change vs veh, CNEP1R1 / RFU, BIVM-ERCC5 /// ERCC5 / Fold change vs veh, BIVM-ERCC5 /// ERCC5 / RFU, ILF3 / Fold change vs veh, ILF3 / RFU 11762660_at / Fold change /veh 11762660_at / RFU VCAN (11757783_s_at) / Fold change /veh VCAN (11757783_s_at) / RFU DDX43 (11728927_at) / Fold change /veh DDX43 (11728927_at) / RFU KRT8 (11758188_x_at) / Fold change /veh KRT8 (11758188_x_at) / RFU NKD1 (11759106_at) / Fold change /veh NKD1 (11759106_at) / RFU SRD5A1 (11742802_a_at) / Fold change /veh SRD5A1 (11742802_a_at) / RFU TPSAB1 /// TPSB2 (11721975_s_at) / Fold change /veh TPSAB1 /// TPSB2 (11721975_s_at) / RFU GSTM3 (11746129_a_at) / Fold change /veh GSTM3 (11746129_a_at) / RFU IL23R (11737362_x_at) / Fold change /veh IL23R (11737362_x_at) / RFU TMEM51 (11727254_a_at) / Fold change /veh TMEM51 (11727254_a_at) / RFU PIWIL2 (11732686_x_at) / Fold change /veh PIWIL2 (11732686_x_at) / RFU ORM1 (11744905_x_at) / Fold change /veh ORM1 (11744905_x_at) / RFU CCDC152 (11743942_at) / Fold change /veh CCDC152 (11743942_at) / RFU ECM1 (11717891_a_at) / Fold change /veh ECM1 (11717891_a_at) / RFU IL23R (11748794_a_at) / Fold change /veh IL23R (11748794_a_at) / RFU TNFAIP8L3 (11732012_x_at) / Fold change /veh TNFAIP8L3 (11732012_x_at) / RFU MBOAT4 (11741988_at) / Fold change /veh MBOAT4 (11741988_at) / RFU 11764193_at / Fold change /veh 11764193_at / RFU TMEM53 (11763286_at) / Fold change /veh TMEM53 (11763286_at) / RFU MAGEB2 (11727129_at) / Fold change /veh MAGEB2 (11727129_at) / RFU TMEM200A (11744735_a_at) / Fold change /veh TMEM200A (11744735_a_at) / RFU CCDC152 (11751479_a_at) / Fold change /veh CCDC152 (11751479_a_at) / RFU FAM211A (11726209_a_at) / Fold change /veh FAM211A (11726209_a_at) / RFU RGS16 (11746705_a_at) / Fold change /veh RGS16 (11746705_a_at) / RFU VCAN (11755009_s_at) / Fold change /veh VCAN (11755009_s_at) / RFU RHOB (11743442_s_at) / Fold change /veh RHOB (11743442_s_at) / RFU RGS16 (11720943_a_at) / Fold change /veh RGS16 (11720943_a_at) / RFU RGS16 (11720944_at) / Fold change /veh RGS16 (11720944_at) / RFU, VPS4B / Fold change vs veh, VPS4B / RFU, CREB1 / Fold change vs veh, CREB1 / RFU, DNAJC13 / Fold change vs veh, DNAJC13 / RFU, GNAQ / Fold change vs veh, GNAQ / RFU, CDK5R1 / Fold change vs veh, CDK5R1 / RFU, ZRANB3 / Fold change vs veh, ZRANB3 / RFU, CUL4A / Fold change vs veh, CUL4A / RFU, CCNY / Fold change vs veh, CCNY / RFU, UFL1 / Fold change vs veh, UFL1 / RFU, COG3 / Fold change vs veh, COG3 / RFU, DIAPH2 / Fold change vs veh, DIAPH2 / RFU, SKA2 / Fold change vs veh, SKA2 / RFU, AFF3 / Fold change vs veh, AFF3 / RFU, LMF1 / Fold change vs veh, LMF1 / RFU, IPO11 / Fold change vs veh, IPO11 / RFU, DFFB / Fold change vs veh, DFFB / RFU, FOXP1 / Fold change vs veh, FOXP1 / RFU, CARD8 / Fold change vs veh, CARD8 / RFU, STRN3 / Fold change vs veh, STRN3 / RFU, ADK / Fold change vs veh, ADK / RFU, RASSF2 / Fold change vs veh, RASSF2 / RFU, WIPF1 / Fold change vs veh, WIPF1 / RFU, LARP1B / Fold change vs veh, LARP1B / RFU, RASA1 / Fold change vs veh, RASA1 / RFU, RB1 / Fold change vs veh, RB1 / RFU, PPFIA1 / Fold change vs veh, PPFIA1 / RFU, MAT2A / Fold change vs veh, MAT2A / RFU, CCT5 / Fold change vs veh, CCT5 / RFU, WDR92 / Fold change vs veh, WDR92 / RFU, CUX1 / Fold change vs veh, CUX1 / RFU, TTC7A / Fold change vs veh, TTC7A / RFU, TMEM135 / Fold change vs veh, TMEM135 / RFU, DEPTOR / Fold change vs veh, DEPTOR / RFU, CPM / Fold change vs veh, CPM / RFU, DNAJB6 / Fold change vs veh, DNAJB6 / RFU, CACNA2D3 / Fold change vs veh, CACNA2D3 / RFU, DTX4 / Fold change vs veh, DTX4 / RFU, TFCP2 / Fold change vs veh, TFCP2 / RFU, GMCL1 /// GMCL1P1 / Fold change vs veh, GMCL1 /// GMCL1P1 / RFU, AEBP2 / Fold change vs veh, AEBP2 / RFU, SNHG1 /// SNORD22 /// SNORD25 /// SNORD26 /// SNORD27 /// SNORD28 /// SNORD29 /// SNORD31 / Fold change vs veh, SNHG1 /// SNORD22 /// SNORD25 /// SNORD26 /// SNORD27 /// SNORD28 /// SNORD29 /// SNORD31 / Fold change (Aza/veh), C12orf56 (ProbeSet 11735607_a_at) / Fold change (ACY-1035/veh), C12orf56 (ProbeSet 11735607_a_at) / Fold change (Aza/veh), FGFR1OP (ProbeSet 11751329_s_at) / Fold change (ACY-1035/veh), FGFR1OP (ProbeSet 11751329_s_at) / Fold change (Aza/veh), VPS36 (ProbeSet 11739960_a_at) / Fold change (ACY-1035/veh), VPS36 (ProbeSet 11739960_a_at) / RFU SYPL1 (11715823_x_at) / Fold change /veh SYPL1 (11715823_x_at) / RFU IGFBP7 (11715501_s_at) / Fold change /veh IGFBP7 (11715501_s_at) / RFU REEP3 (11722064_at) / Fold change /veh REEP3 (11722064_at) / RFU IGLL1 (11728026_x_at) / Fold change /veh IGLL1 (11728026_x_at): dose or concentration left out as unconfirmed
Conditions: MV-4-11 cells, 48 hours

Nc1ncn([C@@H]2O[C@H](CO)[C@@H](O)[C@H]2O)c(=O)n1 [azacitidine]
Fold change /veh LOC100653217 /// NTM (11731650_a_at): 1.16
